Laboratory results as given in US20210275518A1, “METHODS OF USING REBASTINIB IN THE TREATMENT OF DISORDERS” (Deciphera Pharmaceuticals, LLC, priority 2020, published 2021).

How the values were obtained:
[1] = tested on: triple negative breast cancer; experiment: Phase 1b/2 rebastinib + paclitaxel, Part 2 Cohort 1 (RECIST v1.1); format: in vivo, human
Excerpt: (§1) Upon determination of the RP2D, Part 2 is initiated to dose up to 165 evaluable patients using the RP2D across five indication-specific cohorts. A Simon's two-stage design is applied to Part 2 to further evaluate the safety, tolerability, and preliminary efficacy of rebastinib in combination with paclitaxel in triple-negative breast (Cohort 1), inflammatory breast (Cohort 2), ovarian (Cohort 3), endometrial adenocarcinoma (Cohort 4), and gynecologic carcinosarcoma (Cohort 5) cancers. Each cohort initially enrolls up to 18 evaluable patients in the first stage. Patients must receive at least 1 dose of the combination and have 1 post-baseline assessment (including assessment of clinical progression) or be discontinued prior to the postbaseline disease assessment due to an AE at least possibly related to rebastinib, to be considered evaluable. Tumor response is assessed according to Response Evaluation Criteria in Solid Tumors (RECIST) Version 1.1. The decision to enroll patients beyond the first stage is based on response assessments obtained after the first post-dose response assessment of the last patient enrolled in the first stage of a cohort. […] If ≤4 responses are seen in a cohort, the cohort will be terminated. If >4 responses are seen prior to the last evaluable patient in the first stage, expanding the cohort may be triggered earlier. Enrollment in each cohort will pause between the first and second stage of the Simon two-stage for evaluation of response. Patients will receive study treatment until they develop progressive disease, experience unacceptable toxicity, or withdraw consent.

[2] = Pharmacokinetics of rebastinib given with carboplatin; format: in vivo; conditions: time point 2; 50 and 100 mg BID with carboplatin
Description: This is a Phase 1b/2 study where patients with mesothelioma are administered rebastinib in combination with carboplatin. The study follows a Simon 2-stage design at the MTD and R2PD. Safety and tolerability, PK and PD, and preliminary efficacy data was used to determine the RP2D. Upon determination of the RP2D or MTD, the Simon 2-stage design is initiated to dose evaluable patients using the RP2D or MTD across three indication-specific cohorts (breast cancer, ovarian cancer, and mesothelioma).

[3] = tested on: advanced or metastatic solid tumors; experiment: Phase 1b/2 study of rebastinib in combination with paclitaxel (Part 1; overall safety); format: in vivo, human
Excerpt: (§2) This is an open-label Phase 1b/2 multicenter study in patients with advanced or metastatic solid tumors where paclitaxel may be considered appropriate treatment. Rebastinib will be administered in combination with paclitaxel in repeated 28-day cycles to primarily assess the safety, tolerability and preliminary efficacy of the combination. Adverse events (AEs) will be assessed, and laboratory values, vital sign measurements, electrocardiograms (ECGs), ophthalmologic examinations, physical examinations and Eastern Cooperative Oncology Group (ECOG) Performance Status (PS) will be obtained to evaluate the safety and tolerability of rebastinib when administered in combination with paclitaxel. Pharmacokinetic (PK) and pharmacodynamic (PD) samples will be collected at pre-specified time points.
(§3) The study consists of two parts (Part 1 and Part 2). In Part 1, patients were assigned to one of two pre-defined dose levels of rebastinib (50 or 100 mg BID) in combination with paclitaxel administered by intravenous (IV) infusion at 80 mg/m^2. Paclitaxel is to be administered by IV infusion at 80 mg/m^2 over approximately 60 minutes on Day 1, Day 8 and Day 15 of repeated 28-day cycles. Rebastinib is to be administered orally prior to the paclitaxel infusion.
Each arm was planned to enroll at least 12 evaluable patients. Additionally, if rebastinib at 100 mg BID was deemed unsafe, an additional arm dosing at 75 mg BID of rebastinib in combination with paclitaxel may be initiated. Up to 36 evaluable patients were dosed in Part 1. Safety was continuously monitored, and any arm may be terminated early if deemed unsafe by the Sponsor.
Safety and tolerability, PK and PD, and preliminary efficacy data obtained in Part 1 was used to determine the RP2D. Data for at least 12 evaluable patients through Cycle 1 must be available in an arm to declare the dose as the RP2D. Patients must receive ≥80% of planned doses of rebastinib and paclitaxel in Cycle 1 to be considered as evaluable. Enrollment of patients was paused for determination of the RP2D prior to initiation of Part 2. An RP2D was chosen by the Sponsor in consultation with the Investigators.

[4] = tested on: gynecologic carcinosarcoma; experiment: Phase 1b/2 rebastinib + paclitaxel, Part 2 Cohort 5 (RECIST v1.1); format: in vivo, human; conditions: Cycle 5, Day 1
Excerpt: as §1, with “Enrollment in each cohort will pause between the first and second stage of the Simon two-stage for evaluation of response. Patients will receive study treatment until they develop progressive disease, experience unacceptable toxicity, or withdraw consent.” left out

mesothelioma = experiment: Phase 1b/2 rebastinib + paclitaxel, Part 1 patient with mesothelioma; format: in vivo, human; conditions: one patient; 50 mg BID rebastinib + paclitaxel 80 mg/m^2, reduced at Cycle 4 to 25 mg BID + 60 mg/m^2; two prior lines carboplatin and alimta; Cycle 8, Day 1
Description: as §3
Part 1 included treatment of a patient with mesothelioma with 50 mg BID rebastinib and paclitaxel at 80 mg/m^2. The patient had two prior lines of treatment with carboplatin and alimta.

TIE2 = experiment: Pharmacodynamics: circulating Ang-2 levels (Part 1); format: in vivo, human; conditions: with exposure to higher doses of rebastinib in combination with paclitaxel; indicating TIE2 inhibition
Excerpt: as §2

[5] = tested on: Low Passage Champions TUMORGRAFT Models of Human Mesothelioma; experiment: Preclinical rebastinib/carboplatin combination efficacy in mesothelioma PDx models; format: in vivo, immunocompromised mice; conditions: Model 2; 25 mg/kg rebastinib intraperitoneal + 20 mg/kg carboplatin intravenous
Description: This study was conducted to obtain preclinical evidence of rebastinib/carboplatin combination efficacy in mesothelioma to support clinical development. The study was an in vivo evaluation of rebastinib single agent and in combination with carboplatin (SOC), in Low Passage Champions TUMORGRAFT® Models of Human Mesothelioma in immunocompromised mice.
Mesothelioma PDx models were studied each with 8 animals per group for total of 4 groups per model. The study endpoint was when the mean tumor volume of the control reaches 1500 mm^3 or 60 days max. Terminal tumors were be collected, fixed, and embedded.

[6] = both Cycle 3, Day 1 and Cycle 5, Day 1

For `CNC(=O)c1cc(Oc2ccc(NC(=O)Nc3cc(C(C)(C)C)nn3-c3ccc4ncccc4c3)c(F)c2)ccn1` [rebastinib], the “Patients with stable disease” value ([1]; Cycle 3, Day 1) was “one”, the “Patients with partial response” value ([1]; Cycle 8, Day 1) was “one” and the “Patients with partial response” value [1, 6] was “one”. The “Patients with stable disease” value [1, 6] was “two”, the Rebastinib exposure [2] was “dose proportional” and the “Partial response, patients” value ([3]; Part 1, rebastinib 50 mg BID with weekly paclitaxel 80 mg/m^2) was 5 patients. For the same compound, the “Partial response, patients” value ([3]; Part 1, rebastinib 100 mg BID with weekly paclitaxel 80 mg/m^2) was 3 patients, the “Partial response, patients total” value ([3]; Part 1, rebastinib 50 and 100 mg BID with weekly paclitaxel 80 mg/m^2) was 8 patients and the Tolerability ([3]; Part 1, rebastinib 50 and 100 mg BID with weekly paclitaxel 80 mg/m^2, patients with advanced tumors) was “generally well tolerated”. The Muscular weakness ([3]; rebastinib 100 mg BID with weekly paclitaxel 80 mg/m^2, required dose reduction to 50 mg BID) was “high incidence”, the “Patients with partial response” value [4] was “one” and the Tumor response (mesothelioma) was “partial response”. The “Mean circulating Ang-2 levels” value (TIE2) was “increased” and the Tumor inhibition [5] was 38%.
